{"source": "patent US20150125457A1", "about": "“BONE REPAIR PROMOTER” (DAIICHI SANKYO COMPANY, LIMITED, priority 2012, published 2015)", "key": {"[1]": {"test_system": "rat closed femur fracture model", "assay": "Rat closed femur fracture model, callus diameter", "format": "in vivo", "conditions": "0.5 mg/kg/day continuous s.c. for one week; 7 days after fracture; versus vehicle group; FIG. 5B", "description": "(§1) In accordance with the method of Example 2, a rat closed fracture model was prepared. An administration solution was prepared so as to be a dosage corresponding to 0.5 mg/kg/day by using various NPR-B agonists (CNP derivative A, hCNP-53 (SEQ ID NO: 2), CNP derivative C (CNP-36, amino acid Nos. 18 to 53 of SEQ ID NO: 2), and CNP derivative D (Pro-Gly-CNP37, SEQ ID NO: 15)), and then loaded into an osmotic pump (Model 2001, Alzet). The osmotic pump was buried under the skin of the neck back of the animal retained in a supine position, and continuous subcutaneous administration was performed for one week. Vehicle was administered to the control group. 7 days after the preparation of the bone fracture, the animal was subjected to isoflurane inhalation anesthesia, retained in a supine position to open the abdomen, and then subjected to blood collection from the abdominal aorta. EDTA Na was added to the blood, then the EDTA Na-added blood was centrifuged and the plasma separated, and the resultant was cryopreserved. At a later date, the cGMP level in the plasma was measured by a RIA method using a kit (YSI-7702, YAMASA CORPORATION). After blood collection, the animal was bled for the euthanasia, and then the left femur was resected. Each maximum diameter of the sagittal plane and the coronal plane in the callus was measured, and the average value was used as a callus diameter. In accordance with the method of Example 3, the type X collagen gene expression level in the callus was measured. The measurement was performed for 12 cases in each group."}, "[2]": {"test_system": "type X collagen gene", "assay": "Rat closed femur fracture model, cartilage-related marker gene expression (real-time PCR)", "format": "in vivo", "conditions": "Example 4: 0.5 mg/kg/day continuous s.c. for one week; 7 days after fracture; versus vehicle group; FIG. 5C", "description": "In accordance with the method of Example 2, a rat closed fracture model was prepared. For an animal in a Sham group, a pin only was inserted into the femur, and a bone fracture was not prepared. An administration solution of CNP derivative A was prepared so as to be a dosage corresponding to 0.5 mg/kg/day, and then loaded into an osmotic pump (model 2001, Alzet). The osmotic pump was buried under the skin of the neck back of the animal, and continuous subcutaneous administration was performed for one week. Vehicle was continuously subcutaneously administered to the control group. 7 days after the preparation of the bone fracture, the animal was subjected to isoflurane inhalation anesthesia, retained in a supine position to open the abdomen, and then bled for the euthanasia. The left femur was resected, and immersed into RNAlater (Life Technologies Corporation). The diaphysis or part of the callus was cut out from the femur that had been refrigerated in RNAlater for one day or more. To the cut-out diaphysis or part of the callus, QIAzol (QIAGEN) was added, and the resultant was crushed with tungsten beads. The total RNA was extracted by an RNeasy Mini Kit (QIAGEN), and 1st strand cDNA was synthesized by a SuperScript VILO cDNA Synthesis Kit (Life Technologies Corporation). The gene expression level was measured by a real-time PCR method using TaqMan Gene Expression Master Mix (Life Technologies Corporation). The measured value was standardized by the gene expression level of ubiquitin-C. The standardization was performed for 12 cases in each group.\nas §1"}, "[3]": {"molecular_target": "T1, NPR-B (Homo sapiens, UniProt P20594)", "T1 sequence (P20594 23-1047)": "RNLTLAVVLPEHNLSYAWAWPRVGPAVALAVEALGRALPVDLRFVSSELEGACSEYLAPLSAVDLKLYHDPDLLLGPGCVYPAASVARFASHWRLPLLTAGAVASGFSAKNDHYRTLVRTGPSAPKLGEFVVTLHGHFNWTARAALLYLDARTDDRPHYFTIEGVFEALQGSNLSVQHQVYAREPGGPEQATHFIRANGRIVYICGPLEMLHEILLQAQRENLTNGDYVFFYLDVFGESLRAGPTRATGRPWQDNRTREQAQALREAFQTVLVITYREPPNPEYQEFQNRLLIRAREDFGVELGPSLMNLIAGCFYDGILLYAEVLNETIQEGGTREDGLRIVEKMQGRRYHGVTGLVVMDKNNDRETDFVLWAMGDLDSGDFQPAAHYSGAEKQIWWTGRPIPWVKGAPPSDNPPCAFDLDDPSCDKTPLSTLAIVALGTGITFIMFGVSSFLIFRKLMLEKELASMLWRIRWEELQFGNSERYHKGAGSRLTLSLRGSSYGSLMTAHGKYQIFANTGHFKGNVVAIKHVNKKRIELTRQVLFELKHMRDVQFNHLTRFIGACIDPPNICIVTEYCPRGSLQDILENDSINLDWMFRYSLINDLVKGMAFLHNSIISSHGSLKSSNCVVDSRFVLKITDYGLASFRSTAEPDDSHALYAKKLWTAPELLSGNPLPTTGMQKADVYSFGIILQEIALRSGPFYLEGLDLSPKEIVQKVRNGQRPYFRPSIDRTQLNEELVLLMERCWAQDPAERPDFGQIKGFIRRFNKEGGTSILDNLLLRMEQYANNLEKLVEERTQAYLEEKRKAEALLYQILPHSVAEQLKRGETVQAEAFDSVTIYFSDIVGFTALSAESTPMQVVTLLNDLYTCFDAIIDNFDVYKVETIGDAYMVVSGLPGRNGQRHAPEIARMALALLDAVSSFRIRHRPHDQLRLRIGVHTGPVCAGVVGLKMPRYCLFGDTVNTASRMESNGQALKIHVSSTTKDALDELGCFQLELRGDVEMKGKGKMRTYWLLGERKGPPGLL", "conditions": "literature reports (Furuya et al. 1992; US 2010-305031); cited from earlier work"}}, "note": "Bridges are numbered along the chain shown (N, C = ends). Where no end group is shown, it is not given here."}
{"substance": "hCNP-53: human-derived CNP-53, DLRVDTKSRAAWARLLQEHPNARKYKGANKKGLSKGCFGLKLDRIGSMSGLGC: SEQ ID NO: 2 (DLRVDTKSRAAWARLLQEHPNARKYKGANKKGLSKGCFGLKLDRIGSMSGLGC; mammalian) [reference compound]", "values": [{"measurement": "Maximum diameter of the callus generated in the left femur", "setting": "[1]", "result": "significantly larger"}, {"measurement": "Gene expression level of type X collagen in the callus", "setting": "[2]", "result": "suppressed"}]}
{"substance": "CNP derivative D: Pro-Gly-CNP37, SEQ ID NO: 15; derivative described in WO 2009/067639 (PGQEHPNARKYKGANKKGLSKGCFGLKLDRIGSMSGLGC; CNP derivative D, which disclosed in Am. J. Hum. Gent.(2012), 91(6), 1108-1114)", "values": [{"measurement": "Maximum diameter of the callus generated in the left femur", "setting": "[1]", "result": "significantly larger"}, {"measurement": "Gene expression level of type X collagen in the callus", "setting": "[2]", "result": "significantly suppressed"}]}
{"substance": "CNP derivative C: hCNP-36, 17 consecutive amino acids from the N terminus of hCNP-53 deleted; amino acid Nos. 18 to 53 of SEQ ID NO: 2 (EHPNARKYKGANKKGLSKGCFGLKLDRIGSMSGLGC; mammalian)", "values": [{"measurement": "Maximum diameter of the callus generated in the left femur", "setting": "[1]", "result": "significantly larger"}, {"measurement": "Gene expression level of type X collagen in the callus", "setting": "[2]", "result": "significantly suppressed"}]}
{"substance": "CNP6-22: peptide consisting of only the ring structure, amino acid Nos. 6 to 22 of SEQ ID NO: 1 (CFGLKLDRIGSMSGLGC; disulfide 1-17 (inferred))", "values": [{"measurement": "NPR-B agonist activity compared with hCNP-22 (in words)", "setting": "[3]", "result": "almost the same NPR-B agonist activity as that of hCNP-22"}]}
